From ChEMBL document CHEMBL4706643 (J Med Chem, 2021)

Test system: Hepatitis B virus
Assay: Antiviral activity against HBV infected in human HepG2-NTCP cells assessed as reduction in HBeAg secretion cells inoculated with virus for 4 hrs at room temperature and 37 degree C for 24 hrs followed inoculum changed with PMM medium for every 2 days until day 5 post infection by ELISA
Type: functional, organism-based

Row | Compound | IC50 [nM]
1 | CC[C@@H]1NC(=O)[C@H]([C@@H]2OC(OCCC(=O)OC)C[C@H]2C)N(C)C(=O)[C@H](C(C)C)N(C)C(=O)[C@H](CC(C)C)N(C)C(=O)[C@H](CC(C)C)N(C)C(=O)[C@@H](C)NC(=O)[C@H](C)NC(=O)[C@H](CC(C)C)N(C)C(=O)[C@H](C(C)C)NC(=O)[C@H](CC(C)C)N(C)C(=O)CN(C)C1=O (stereo partly drawn) | 9260
2 | CC[C@@H]1NC(=O)[C@H]([C@@H]2O[C@@H](Oc3cc(OC)cc(OC)c3)C[C@H]2C)N(C)C(=O)[C@H](C(C)C)N(C)C(=O)[C@H](CC(C)C)N(C)C(=O)[C@H](CC(C)C)N(C)C(=O)[C@@H](C)NC(=O)[C@H](C)NC(=O)[C@H](CC(C)C)N(C)C(=O)[C@H](C(C)C)NC(=O)[C@H](CC(C)C)N(C)C(=O)CN(C)C1=O | 689
3 | C/C=C/C[C@@H](C)[C@@H](O)[C@H]1C(=O)N[C@@H](CC)C(=O)N(C)CC(=O)N(C)[C@@H](CC(C)C)C(=O)N[C@@H](C(C)C)C(=O)N(C)[C@@H](CC(C)C)C(=O)N[C@@H](C)C(=O)N[C@H](C)C(=O)N(C)[C@@H](CC(C)C)C(=O)N(C)[C@@H](CC(C)C)C(=O)N(C)[C@@H](C(C)C)C(=O)N1C [CYCLOSPORINE] | 5780
4 | CC[C@@H]1NC(=O)[C@H]([C@@H]2O[C@@H](Sc3ccc(OC)cc3)C[C@H]2C)N(C)C(=O)[C@H](C(C)C)N(C)C(=O)[C@H](CC(C)C)N(C)C(=O)[C@H](CC(C)C)N(C)C(=O)[C@@H](C)NC(=O)[C@H](C)NC(=O)[C@H](CC(C)C)N(C)C(=O)[C@H](C(C)C)NC(=O)[C@H](CC(C)C)N(C)C(=O)CN(C)C1=O | 990
5 | CC[C@@H]1NC(=O)[C@H]([C@@H]2O[C@H](Sc3ccc(OC)cc3)C[C@H]2C)N(C)C(=O)[C@H](C(C)C)N(C)C(=O)[C@H](CC(C)C)N(C)C(=O)[C@H](CC(C)C)N(C)C(=O)[C@@H](C)NC(=O)[C@H](C)NC(=O)[C@H](CC(C)C)N(C)C(=O)[C@H](C(C)C)NC(=O)[C@H](CC(C)C)N(C)C(=O)CN(C)C1=O | 1700
6 | CC[C@@H]1NC(=O)[C@H]([C@@H]2OC(C(C)C)C[C@H]2C)N(C)C(=O)[C@H](C(C)C)N(C)C(=O)[C@H](CC(C)C)N(C)C(=O)[C@H](CC(C)C)N(C)C(=O)[C@@H](C)NC(=O)[C@H](C)NC(=O)[C@H](CC(C)C)N(C)C(=O)[C@H](C(C)C)NC(=O)[C@H](CC(C)C)N(C)C(=O)CN(C)C1=O (stereo partly drawn) | > 10000
7 | CC[C@@H]1NC(=O)[C@H]([C@@H]2O[C@@H](Sc3nccc(C(F)(F)F)n3)C[C@H]2C)N(C)C(=O)[C@H](C(C)C)N(C)C(=O)[C@H](CC(C)C)N(C)C(=O)[C@H](CC(C)C)N(C)C(=O)[C@@H](C)NC(=O)[C@H](C)NC(=O)[C@H](CC(C)C)N(C)C(=O)[C@H](C(C)C)NC(=O)[C@H](CC(C)C)N(C)C(=O)CN(C)C1=O | 4960
8 | CC[C@@H]1NC(=O)[C@H]([C@@H]2OC(C(C)=O)C[C@H]2C)N(C)C(=O)[C@H](C(C)C)N(C)C(=O)[C@H](CC(C)C)N(C)C(=O)[C@H](CC(C)C)N(C)C(=O)[C@@H](C)NC(=O)[C@H](C)NC(=O)[C@H](CC(C)C)N(C)C(=O)[C@H](C(C)C)NC(=O)[C@H](CC(C)C)N(C)C(=O)CN(C)C1=O (stereo partly drawn) | > 10000
9 | CC[C@@H]1NC(=O)[C@H]([C@@H]2OC(OCCC(=O)O)C[C@H]2C)N(C)C(=O)[C@H](C(C)C)N(C)C(=O)[C@H](CC(C)C)N(C)C(=O)[C@H](CC(C)C)N(C)C(=O)[C@@H](C)NC(=O)[C@H](C)NC(=O)[C@H](CC(C)C)N(C)C(=O)[C@H](C(C)C)NC(=O)[C@H](CC(C)C)N(C)C(=O)CN(C)C1=O (stereo partly drawn) | > 10000
10 | CC[C@@H]1NC(=O)[C@H]([C@@H]2O[C@@H](Sc3cccc(OC)c3)C[C@H]2C)N(C)C(=O)[C@H](C(C)C)N(C)C(=O)[C@H](CC(C)C)N(C)C(=O)[C@H](CC(C)C)N(C)C(=O)[C@@H](C)NC(=O)[C@H](C)NC(=O)[C@H](CC(C)C)N(C)C(=O)[C@H](C(C)C)NC(=O)[C@H](CC(C)C)N(C)C(=O)CN(C)C1=O | 530

These reach a lower IC50. Values come first.

Row | IC50 [nM] | Compound
11 | 417 | CC[C@@H]1NC(=O)[C@H]([C@@H]2O[C@@H](Sc3cc(Cl)cc(OCc4ccc(F)cc4)c3)C[C@H]2C)N(C)C(=O)[C@H](C(C)C)N(C)C(=O)[C@H](CC(C)C)N(C)C(=O)[C@H](CC(C)C)N(C)C(=O)[C@@H](C)NC(=O)[C@H](C)NC(=O)[C@H](CC(C)C)N(C)C(=O)[C@H](C(C)C)NC(=O)[C@H](CC(C)C)N(C)C(=O)CN(C)C1=O
12 | 403 | CC[C@@H]1NC(=O)[C@H]([C@@H]2O[C@@H](Sc3cccc(OCc4ccc(F)cc4Cl)c3)C[C@H]2C)N(C)C(=O)[C@H](C(C)C)N(C)C(=O)[C@H](CC(C)C)N(C)C(=O)[C@H](CC(C)C)N(C)C(=O)[C@@H](C)NC(=O)[C@H](C)NC(=O)[C@H](CC(C)C)N(C)C(=O)[C@H](C(C)C)NC(=O)[C@H](CC(C)C)N(C)C(=O)CN(C)C1=O
13 | 365 | CC[C@@H]1NC(=O)[C@H]([C@@H]2O[C@@H](Sc3cccc(OCC4CC4)c3)C[C@H]2C)N(C)C(=O)[C@H](C(C)C)N(C)C(=O)[C@H](CC(C)C)N(C)C(=O)[C@H](CC(C)C)N(C)C(=O)[C@@H](C)NC(=O)[C@H](C)NC(=O)[C@H](CC(C)C)N(C)C(=O)[C@H](C(C)C)NC(=O)[C@H](CC(C)C)N(C)C(=O)CN(C)C1=O
14 | 335 | CC[C@@H]1NC(=O)[C@H]([C@@H]2O[C@@H](Sc3cccc(OCc4ccc(F)c(Cl)c4)c3)C[C@H]2C)N(C)C(=O)[C@H](C(C)C)N(C)C(=O)[C@H](CC(C)C)N(C)C(=O)[C@H](CC(C)C)N(C)C(=O)[C@@H](C)NC(=O)[C@H](C)NC(=O)[C@H](CC(C)C)N(C)C(=O)[C@H](C(C)C)NC(=O)[C@H](CC(C)C)N(C)C(=O)CN(C)C1=O
15 | 318 | CC[C@@H]1NC(=O)[C@H]([C@@H]2O[C@@H](Sc3cccc(OCc4ccccc4F)c3)C[C@H]2C)N(C)C(=O)[C@H](C(C)C)N(C)C(=O)[C@H](CC(C)C)N(C)C(=O)[C@H](CC(C)C)N(C)C(=O)[C@@H](C)NC(=O)[C@H](C)NC(=O)[C@H](CC(C)C)N(C)C(=O)[C@H](C(C)C)NC(=O)[C@H](CC(C)C)N(C)C(=O)CN(C)C1=O
16 | 317 | CC[C@@H]1NC(=O)[C@H]([C@@H]2O[C@@H](Sc3cccc(OCc4ccccn4)c3)C[C@H]2C)N(C)C(=O)[C@H](C(C)C)N(C)C(=O)[C@H](CC(C)C)N(C)C(=O)[C@H](CC(C)C)N(C)C(=O)[C@@H](C)NC(=O)[C@H](C)NC(=O)[C@H](CC(C)C)N(C)C(=O)[C@H](C(C)C)NC(=O)[C@H](CC(C)C)N(C)C(=O)CN(C)C1=O
17 | 269 | CC[C@@H]1NC(=O)[C@H]([C@@H]2O[C@@H](Sc3cccc(OCc4cccnc4)c3)C[C@H]2C)N(C)C(=O)[C@H](C(C)C)N(C)C(=O)[C@H](CC(C)C)N(C)C(=O)[C@H](CC(C)C)N(C)C(=O)[C@@H](C)NC(=O)[C@H](C)NC(=O)[C@H](CC(C)C)N(C)C(=O)[C@H](C(C)C)NC(=O)[C@H](CC(C)C)N(C)C(=O)CN(C)C1=O
18 | 172 | CC[C@@H]1NC(=O)[C@H]([C@@H]2O[C@@H](Sc3cccc(OC(C)c4ccccc4)c3)C[C@H]2C)N(C)C(=O)[C@H](C(C)C)N(C)C(=O)[C@H](CC(C)C)N(C)C(=O)[C@H](CC(C)C)N(C)C(=O)[C@@H](C)NC(=O)[C@H](C)NC(=O)[C@H](CC(C)C)N(C)C(=O)[C@H](C(C)C)NC(=O)[C@H](CC(C)C)N(C)C(=O)CN(C)C1=O (stereo partly drawn)
